How the values were obtained:
[1] = tested on: PS1 fibroblasts; experiment: Phospholipid accumulation by LipidTOX; assay type: cell-based, human; conditions: 10 μM, 24 h
[2] = tested on: PS1 fibroblasts; experiment: Ceramide production in PS1 fibroblasts; assay type: cell-based, human; conditions: 10 μM, 30 min
[3] = target: T1, ASM (Homo sapiens, UniProt P17405); experiment: ASM activity after leupeptin preincubation in PS1 fibroblasts; assay type: cell-based; conditions: 25 µM leupeptin 24 h, then compound 30 min
T1 sequence (P17405 47-631): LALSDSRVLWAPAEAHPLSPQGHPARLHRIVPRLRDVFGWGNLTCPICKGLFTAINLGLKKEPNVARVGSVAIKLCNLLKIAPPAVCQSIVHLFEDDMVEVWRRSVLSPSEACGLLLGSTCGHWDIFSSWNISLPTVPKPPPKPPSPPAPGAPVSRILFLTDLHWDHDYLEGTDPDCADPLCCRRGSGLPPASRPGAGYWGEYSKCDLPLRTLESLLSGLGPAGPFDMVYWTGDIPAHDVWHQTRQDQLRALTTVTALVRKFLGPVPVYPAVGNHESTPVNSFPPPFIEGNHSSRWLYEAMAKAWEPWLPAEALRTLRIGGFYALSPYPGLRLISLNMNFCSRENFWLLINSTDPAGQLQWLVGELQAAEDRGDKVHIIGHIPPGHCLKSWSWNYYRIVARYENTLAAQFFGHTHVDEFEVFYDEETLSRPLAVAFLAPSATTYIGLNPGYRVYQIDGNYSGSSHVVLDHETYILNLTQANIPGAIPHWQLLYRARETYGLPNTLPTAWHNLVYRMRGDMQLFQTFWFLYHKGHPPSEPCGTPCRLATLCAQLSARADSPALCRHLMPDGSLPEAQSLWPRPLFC

[4] = target: T1, ASM; experiment: ASM activity in AD patient; assay type: cell-based; conditions: PS1 fibroblasts, 10 μM, 30 min
[5] = target: T2, secretory ASM (Homo sapiens, UniProt P17405); experiment: Secretory ASM activity in PS1-derived supernatant medium; assay type: biochemical; conditions: P-sup, assay buffer with zinc, 10 μM, 1 h
T2 sequence (P17405 47-631): T1 sequence (P17405 47-631)

[6] = tested on: APP/PS1 mice; assay type: in vivo, mouse; conditions: p.o., KARI 201 1, 5, or 10 mg⋅kg−1, AMI 100 mg⋅kg−1

For `CN(C)CCC=C1c2ccccc2CCc2ccccc21` [AMI, amitriptyline], the “accumulation of phospholipids (LipidTOX MFI)” value [1] was “induced accumulation of phospholipids”, the ceramide production [2] was “decreased” and the “effect of leupeptin preincubation on ASM inhibition” value [3] was “prevented ASM inhibition”. For the same compound, the “ASM activity in cell lysates” value [4] was “efficiently inhibited”, the “secretory ASM activity” value [5] was “did not inhibit ASM activity” and the Survival [6] was “not affected”. For the same compound, the body weight [6] was “not affected”.
